Results taken from ChEMBL document CHEMBL5653604, “ZSTK474, a novel phosphatidylinositol 3-kinase inhibitor identified using the JFCR39 drug discovery system” (Acta Pharmacol Sin, 2010).
pIC50: −log10 of the molar value.

Legend:
[1] = biological target: Phosphatidylinositol 4,5-bisphosphate 3-kinase catalytic subunit beta isoform (Homo sapiens, UniProt P42338); experiment: Inhibition of p110 beta (unknown origin)
[2] = biological target: Phosphatidylinositol 4,5-bisphosphate 3-kinase catalytic subunit gamma isoform (Homo sapiens, UniProt P48736); experiment: Inhibition of p110 gamma (unknown origin)
Phosphatidylinositol 4,5-bisphosphate 3-kinase catalytic subunit gamma isoform, sequence (P48736 whole entry, canonical isoform): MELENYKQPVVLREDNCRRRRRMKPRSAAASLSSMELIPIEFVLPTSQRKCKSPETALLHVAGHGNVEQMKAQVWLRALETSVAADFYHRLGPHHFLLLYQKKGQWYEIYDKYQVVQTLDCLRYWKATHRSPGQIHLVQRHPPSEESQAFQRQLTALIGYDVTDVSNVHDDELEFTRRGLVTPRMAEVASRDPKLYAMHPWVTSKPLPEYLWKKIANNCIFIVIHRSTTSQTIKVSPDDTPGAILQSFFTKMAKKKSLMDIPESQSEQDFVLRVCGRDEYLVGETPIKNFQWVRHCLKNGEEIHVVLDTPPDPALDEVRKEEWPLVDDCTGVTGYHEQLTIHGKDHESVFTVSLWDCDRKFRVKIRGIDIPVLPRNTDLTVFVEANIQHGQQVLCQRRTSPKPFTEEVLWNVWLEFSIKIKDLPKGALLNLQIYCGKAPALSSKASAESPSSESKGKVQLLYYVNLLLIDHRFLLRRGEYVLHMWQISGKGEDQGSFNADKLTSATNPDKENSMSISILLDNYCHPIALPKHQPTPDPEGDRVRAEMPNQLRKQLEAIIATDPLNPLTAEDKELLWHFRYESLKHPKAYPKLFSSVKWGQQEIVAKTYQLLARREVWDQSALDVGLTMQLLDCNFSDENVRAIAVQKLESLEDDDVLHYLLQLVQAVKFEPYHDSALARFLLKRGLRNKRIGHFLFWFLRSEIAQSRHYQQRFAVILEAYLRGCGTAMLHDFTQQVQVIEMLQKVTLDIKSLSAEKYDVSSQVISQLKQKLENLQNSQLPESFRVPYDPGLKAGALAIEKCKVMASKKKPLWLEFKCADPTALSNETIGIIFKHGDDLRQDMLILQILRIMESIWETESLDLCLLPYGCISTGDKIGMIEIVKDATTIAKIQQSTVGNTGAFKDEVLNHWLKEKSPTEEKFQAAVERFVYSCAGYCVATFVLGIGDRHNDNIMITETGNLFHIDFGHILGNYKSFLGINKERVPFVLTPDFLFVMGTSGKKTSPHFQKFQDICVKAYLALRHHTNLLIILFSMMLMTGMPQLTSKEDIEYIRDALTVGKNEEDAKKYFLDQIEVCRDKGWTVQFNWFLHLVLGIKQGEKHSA

[3] = biological target: T1, Phosphatidylinositol 4,5-bisphosphate 3-kinase catalytic subunit delta isoform (Homo sapiens, UniProt O00329); experiment: Inhibition of p110 delta (unknown origin)
T1 sequence (O00329 whole entry): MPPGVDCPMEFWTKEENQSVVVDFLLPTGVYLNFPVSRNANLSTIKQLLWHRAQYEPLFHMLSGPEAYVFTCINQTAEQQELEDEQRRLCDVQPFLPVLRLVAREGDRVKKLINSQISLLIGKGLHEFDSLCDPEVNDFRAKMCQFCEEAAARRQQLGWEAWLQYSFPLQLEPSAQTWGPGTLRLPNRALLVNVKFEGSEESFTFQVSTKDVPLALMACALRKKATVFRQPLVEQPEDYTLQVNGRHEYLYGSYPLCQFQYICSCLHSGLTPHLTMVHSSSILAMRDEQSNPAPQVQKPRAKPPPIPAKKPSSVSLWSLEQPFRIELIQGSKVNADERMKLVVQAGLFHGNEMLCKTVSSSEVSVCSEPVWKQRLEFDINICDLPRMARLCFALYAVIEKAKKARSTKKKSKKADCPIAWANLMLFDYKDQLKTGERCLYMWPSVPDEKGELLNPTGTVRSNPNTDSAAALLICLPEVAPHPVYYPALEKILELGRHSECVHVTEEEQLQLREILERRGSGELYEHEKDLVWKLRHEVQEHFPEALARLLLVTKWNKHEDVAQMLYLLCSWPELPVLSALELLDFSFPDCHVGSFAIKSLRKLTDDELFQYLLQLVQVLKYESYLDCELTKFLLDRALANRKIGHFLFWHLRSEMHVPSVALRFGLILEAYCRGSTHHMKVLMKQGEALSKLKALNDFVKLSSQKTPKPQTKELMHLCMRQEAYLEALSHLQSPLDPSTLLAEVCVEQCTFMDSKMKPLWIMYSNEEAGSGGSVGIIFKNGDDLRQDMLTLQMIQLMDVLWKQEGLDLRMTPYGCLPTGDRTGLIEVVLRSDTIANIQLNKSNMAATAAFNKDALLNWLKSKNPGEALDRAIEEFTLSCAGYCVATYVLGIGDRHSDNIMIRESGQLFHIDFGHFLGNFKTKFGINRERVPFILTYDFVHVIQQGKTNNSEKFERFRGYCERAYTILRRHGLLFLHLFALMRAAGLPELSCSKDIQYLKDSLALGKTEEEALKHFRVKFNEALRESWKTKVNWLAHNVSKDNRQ

[4] = biological target: Phosphatidylinositol 4,5-bisphosphate 3-kinase catalytic subunit alpha isoform (Homo sapiens, UniProt P42336); experiment: Inhibition of p110 alpha (unknown origin)
Phosphatidylinositol 4,5-bisphosphate 3-kinase catalytic subunit alpha isoform, sequence (P42336 whole entry, canonical isoform): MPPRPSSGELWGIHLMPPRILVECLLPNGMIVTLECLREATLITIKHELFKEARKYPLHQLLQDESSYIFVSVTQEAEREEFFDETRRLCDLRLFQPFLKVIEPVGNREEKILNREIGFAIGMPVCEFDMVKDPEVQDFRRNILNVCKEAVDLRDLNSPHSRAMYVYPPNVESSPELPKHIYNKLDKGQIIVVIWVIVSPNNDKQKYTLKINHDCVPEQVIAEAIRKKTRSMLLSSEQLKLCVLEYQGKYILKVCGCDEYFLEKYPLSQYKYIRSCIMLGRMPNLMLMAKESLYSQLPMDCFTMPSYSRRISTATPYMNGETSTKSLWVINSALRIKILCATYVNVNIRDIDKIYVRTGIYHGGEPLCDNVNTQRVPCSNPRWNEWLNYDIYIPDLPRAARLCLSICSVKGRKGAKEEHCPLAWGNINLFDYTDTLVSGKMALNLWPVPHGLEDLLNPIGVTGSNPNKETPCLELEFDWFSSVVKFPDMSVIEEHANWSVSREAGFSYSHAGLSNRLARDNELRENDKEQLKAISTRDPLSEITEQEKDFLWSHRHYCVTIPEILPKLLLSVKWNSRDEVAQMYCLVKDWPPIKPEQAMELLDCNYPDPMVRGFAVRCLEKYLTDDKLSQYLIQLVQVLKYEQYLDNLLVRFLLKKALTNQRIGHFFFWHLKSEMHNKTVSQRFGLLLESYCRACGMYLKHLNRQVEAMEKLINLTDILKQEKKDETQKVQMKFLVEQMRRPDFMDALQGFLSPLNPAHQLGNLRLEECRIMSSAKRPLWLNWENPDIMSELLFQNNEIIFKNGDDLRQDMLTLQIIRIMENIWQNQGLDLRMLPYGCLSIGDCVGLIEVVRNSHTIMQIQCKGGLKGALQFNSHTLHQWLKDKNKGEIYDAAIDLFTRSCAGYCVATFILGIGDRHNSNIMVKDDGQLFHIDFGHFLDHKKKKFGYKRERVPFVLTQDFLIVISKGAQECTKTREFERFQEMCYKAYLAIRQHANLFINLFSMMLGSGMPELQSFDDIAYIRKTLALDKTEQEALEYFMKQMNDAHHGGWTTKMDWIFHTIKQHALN

[5] = system: SK-OV-3; experiment: Growth inhibition of human SK-OV-3 cells assessed as reduction in cell viability incubated for 48 hrs by SRB assay; type: functional
[6] = system: NCI-H460; experiment: Growth inhibition of human NCI-H460 cells assessed as reduction in cell viability incubated for 48 hrs by SRB assay; type: functional
[7] = system: OVCAR-8; experiment: Growth inhibition of human OVCAR-8 cells assessed as reduction in cell viability incubated for 48 hrs by SRB assay; type: functional
[8] = system: RXF 631; experiment: Growth inhibition of human RXF 631 cells assessed as reduction in cell viability incubated for 48 hrs by SRB assay; type: functional

Phosphatidylinositol 4,5-bisphosphate 3-kinase catalytic subunit beta isoform, sequence (P42338 whole entry, canonical isoform): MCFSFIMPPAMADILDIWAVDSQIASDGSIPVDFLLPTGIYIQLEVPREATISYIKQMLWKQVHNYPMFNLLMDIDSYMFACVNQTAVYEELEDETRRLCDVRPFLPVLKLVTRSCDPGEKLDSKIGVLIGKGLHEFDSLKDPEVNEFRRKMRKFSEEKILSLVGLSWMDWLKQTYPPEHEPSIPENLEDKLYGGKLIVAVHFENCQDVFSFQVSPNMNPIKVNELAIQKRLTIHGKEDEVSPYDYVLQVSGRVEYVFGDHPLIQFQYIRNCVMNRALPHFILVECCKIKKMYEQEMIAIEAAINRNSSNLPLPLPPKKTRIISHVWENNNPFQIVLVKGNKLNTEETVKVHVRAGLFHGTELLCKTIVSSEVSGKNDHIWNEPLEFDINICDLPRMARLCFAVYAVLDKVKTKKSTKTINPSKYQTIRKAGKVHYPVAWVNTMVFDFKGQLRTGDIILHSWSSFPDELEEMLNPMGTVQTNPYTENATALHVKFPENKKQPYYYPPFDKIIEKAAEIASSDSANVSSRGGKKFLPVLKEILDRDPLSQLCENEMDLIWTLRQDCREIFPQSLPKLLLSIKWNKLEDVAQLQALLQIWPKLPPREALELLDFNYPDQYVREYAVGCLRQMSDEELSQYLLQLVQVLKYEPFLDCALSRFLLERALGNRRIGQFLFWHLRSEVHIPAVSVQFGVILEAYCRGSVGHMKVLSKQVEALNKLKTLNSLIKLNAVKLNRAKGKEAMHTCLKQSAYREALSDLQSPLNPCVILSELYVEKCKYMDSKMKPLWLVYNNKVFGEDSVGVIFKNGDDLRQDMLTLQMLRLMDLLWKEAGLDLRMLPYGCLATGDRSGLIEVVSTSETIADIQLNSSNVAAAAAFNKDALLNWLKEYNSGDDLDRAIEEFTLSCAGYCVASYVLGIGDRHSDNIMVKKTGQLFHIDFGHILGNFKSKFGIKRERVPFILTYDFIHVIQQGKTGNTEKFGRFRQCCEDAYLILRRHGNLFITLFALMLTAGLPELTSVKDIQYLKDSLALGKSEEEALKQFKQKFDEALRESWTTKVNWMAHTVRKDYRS

Row | pIC50 [1] | SMILES | pIC50 [2] | pIC50 [3] | other results
1 | 6.95 | COc1cc(Nc2nc3ccccc3nc2NS(=O)(=O)c2ccc(NC(=O)c3ccc(C)c(OC)c3)cc2)cc(OC)c1 |  |  | 
2 |  | COc1ncc(-c2ccc3nccc(-c4ccnnc4)c3c2)cc1NS(=O)(=O)c1ccc(F)cc1F [OMIPALISIB] | 9.00 |  | 
3 |  | COc1ccc(Cl)c(Nc2nc3ccccc3nc2NS(=O)(=O)c2cccc(NC(=O)C(C)(C)N)c2)c1 [PILARALISIB] | 7.64 | 7.44 | 
4 | < 6.52 | C=CCN(/C=C1/C(=O)O[C@H](COC)[C@@]2(C)C1=C(O)C(=O)C1=C2[C@H](OC(C)=O)C[C@]2(C)C(=O)CC[C@@H]12)CC=C [SONOLISIB] |  | 8.52 | pIC50 [4]: 8.22
5 |  | FC(F)c1nc2ccccc2n1-c1nc(N2CCOCC2)nc(N2CCOCC2)n1 [ZSTK-474] |  |  | GI50 [5]: 398 nM; GI50 [6]: 372 nM; GI50 [7]: 1260 nM; GI50 [8]: 316 nM
